This is an account of results in patent US11465983B2, “USP7 inhibitors for treating multiple myeloma” (Dana-Farber Cancer Institute, Inc., priority 2017, dated 2022).

In test [1] the target is T1, USP7 (Homo sapiens, UniProt Q93009). Description: Isothermal titration calorimetry, binding affinity of protein/ligand. The arrangement: made in house; host or cells: E. coli BL21 (DE3). To be noted: ITC at 20° C. As for the experimental part: The binding affinity of protein/ligand was measured by adding 0.02 mM protein in cell and titrating with 0.2 mM ligand in the syringe using an Auto-ITC200 microcalorimeter (Malvern) at 20° C. (FIG. 2C). Proteins and ligands were prepared within ITC buffer containing 20 mM HEPES pH 7.5, 150 mM NaCl, and 2% DMSO. The data were fit using Origin 7.0 software.
Target sequence in this assay (Q93009 whole entry): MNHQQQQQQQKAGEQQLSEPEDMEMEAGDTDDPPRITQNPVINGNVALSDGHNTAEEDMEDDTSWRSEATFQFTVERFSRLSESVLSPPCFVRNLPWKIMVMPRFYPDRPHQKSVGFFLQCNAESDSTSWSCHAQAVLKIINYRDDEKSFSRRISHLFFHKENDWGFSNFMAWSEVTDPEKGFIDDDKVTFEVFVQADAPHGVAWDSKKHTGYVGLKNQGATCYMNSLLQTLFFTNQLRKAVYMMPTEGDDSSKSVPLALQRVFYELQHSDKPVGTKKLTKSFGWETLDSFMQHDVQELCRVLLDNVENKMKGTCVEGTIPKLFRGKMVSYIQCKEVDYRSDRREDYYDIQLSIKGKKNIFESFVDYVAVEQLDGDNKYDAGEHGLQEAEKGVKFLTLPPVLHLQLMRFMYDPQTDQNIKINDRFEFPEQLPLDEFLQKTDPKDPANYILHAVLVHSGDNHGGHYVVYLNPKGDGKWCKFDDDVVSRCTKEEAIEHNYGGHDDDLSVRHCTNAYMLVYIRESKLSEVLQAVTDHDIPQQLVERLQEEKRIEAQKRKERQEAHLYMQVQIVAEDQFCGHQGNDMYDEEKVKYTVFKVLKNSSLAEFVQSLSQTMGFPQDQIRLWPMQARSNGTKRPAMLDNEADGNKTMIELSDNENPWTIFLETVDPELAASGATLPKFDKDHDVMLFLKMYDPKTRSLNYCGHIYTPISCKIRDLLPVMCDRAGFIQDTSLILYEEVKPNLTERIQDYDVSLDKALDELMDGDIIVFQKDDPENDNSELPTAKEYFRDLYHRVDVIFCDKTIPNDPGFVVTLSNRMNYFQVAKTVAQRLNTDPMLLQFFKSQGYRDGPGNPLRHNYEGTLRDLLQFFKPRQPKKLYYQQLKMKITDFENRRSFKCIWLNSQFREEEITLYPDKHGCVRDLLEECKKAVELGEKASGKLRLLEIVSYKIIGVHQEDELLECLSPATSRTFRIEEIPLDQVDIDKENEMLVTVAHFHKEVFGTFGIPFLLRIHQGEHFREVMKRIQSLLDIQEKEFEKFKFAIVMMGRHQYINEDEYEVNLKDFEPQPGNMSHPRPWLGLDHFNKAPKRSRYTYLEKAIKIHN

Test [2] deals with HDM2, p53 and p21 protein levels in MCF7 cells. Description: Immunoblot of HDM2, p53 and p21 protein levels in treated cells. The test is classed as cell-based. To be noted: 16 hours, FIG. 6A. As for the experimental part: MCF7 and MM.1S were grown in RPMI supplemented with 10% Fetal Bovine serum (FBS) and antibiotics. Cells were treated with DMSO or different concentrations of compounds 10 and 11 for 6 (MM1S) or 16 (MCF7) hours in presence or absence of cycloheximide. For the experiments in which cycloheximide was used, cells were treated with compounds for 4 (MM1S) or 14 (MCF7) hours prior to the addition of 50 ug/ml of cycloheximide. At 6 or 16 h time point cells were washed in PBS and lysed in modified RIPA buffer (1% Triton X-100, 1% sodium deoxycholate, 0.1% SDS, 20 mM Tris, 150 mM NaCl, 1 mM EDTA) containing phosphatase inhibitor cocktails 1 and 2 (Sigma), and protease inhibitors. Protein concentrations were quantified using the BCA protein assay kit (Pierce) and samples were probed by immunoblotting using mdm2 (santa cruz sc-965), p53 (cell signaling 9282), p21 (cell signaling 2947), GAPDH (cell signaling 2118), USP7 (cell signaling 4833) antibodies (FIGS. 6A-D).
(In western blotting, separated proteins are transferred to a membrane and probed.)

The target in test [3] is T1, USP7. Put plainly: Ub-AMC assay (USP7 assay). The arrangement: fused on or other part: His tag from pET28aLIC; removed by thrombin for the catalytic domain, no removal step given for the full length. The following applies: USP7 assay. The test is classed as biochemical. The procedure: USP7 and mutants were tested for their activity in Ubiquitin-AMC assay in presence or absence of inhibitors. […] For the same assay USP7 full length WT and Q351 mutant were used at 50 nM. […] The reaction was incubated 30 min at room temperature prior to the addition of 2 uM Ubiquitin-AMC (Boston Biochem) substrate. […] The calculated initial rate values were plotted against inhibitor concentrations to determine IC50s. All the experimental data were plotted using Prism GraphPad. FIG. 2A illustrates the structure guided optimization for the inhibition of USP7.
ND refers to not disclosed.
Target sequence in this assay (Q93009 208-560 limits assumed): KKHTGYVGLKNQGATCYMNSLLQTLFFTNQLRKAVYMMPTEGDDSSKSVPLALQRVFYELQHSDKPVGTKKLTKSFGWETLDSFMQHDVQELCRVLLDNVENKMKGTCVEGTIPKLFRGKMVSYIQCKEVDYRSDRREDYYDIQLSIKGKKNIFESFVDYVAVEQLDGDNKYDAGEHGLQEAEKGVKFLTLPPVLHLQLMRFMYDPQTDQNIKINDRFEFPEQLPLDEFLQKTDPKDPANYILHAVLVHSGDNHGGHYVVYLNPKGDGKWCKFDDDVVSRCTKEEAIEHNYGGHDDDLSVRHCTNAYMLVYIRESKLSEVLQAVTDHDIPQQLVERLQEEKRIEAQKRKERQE

Molecules are shown by their SMILES.

As a reminder, the Kd is the equilibrium constant for the complex coming apart. What is called IC50 is the midpoint of a concentration-inhibition curve. Read a low IC50 as inhibition by little substance. `C[C@H](CC(=O)N1CCC(O)(Cn2cnc3cc(NC(=O)CCN4CCN(C)CC4)ccc3c2=O)CC1)c1ccccc1` [Compound 10, (R)—N-(3-((4-Hydroxy-1-(3-phenylbutanoyl)piperidin-4-yl)methyl)-4-oxo-3,4-dihydroquinazolin-7-yl)-3-(4-methylpiperazin-1-yl)propanamide]: on USP7 [1], the “DH” value was -15.1 kcal/mol and the “n (stoichiometry)” value is listed as 1.06. On USP7 [1] (0.02 mM protein, 0.2 mM ligand), the Kd was 0.104 µM. The “HDM2, p53 and p21 protein levels” value in test [2] was “promotes loss HDM2 and accumulation of p53 and p21”. The compound also gave a half-inhibitory concentration (IC50) on USP7 [3] below 0.2 µM.

In the case of `CC(CC(=O)N1CCC(O)(Cn2cnc3cc(Cl)ccc3c2=O)CC1)c1ccccc1` (stereo not drawn) [Compound 8, 7-Chloro-3-((4-hydroxy-1-(3-phenylbutanoyl)piperidin-4-yl)methyl)quinazolin-4(3H)-one], on USP7 [1], the “DH” value is -3.9 kcal/mol, the “DS (cal/mol•K)” value is 13.1 cal/mol•K and the “n (stoichiometry)” value worked out at 2.46. At USP7 [1] (0.02 mM protein, 0.2 mM ligand), this compound came in with a Kd of 1.84 µM. At USP7 [3], the IC50 was below 0.2 µM.

On USP7 [3], `O=C(NCC(=O)N1CCC(O)(Cn2cnc3cc(Cl)ccc3c2=O)CC1)c1ccc2c(Cl)c3c(nc2c1)CCCC3` [Compound 96] displayed an IC50 above 10 µM.

For `O=C(CCc1ccc(F)cc1)N1CCC(O)(Cn2cnc3cc(Cl)ccc3c2=O)C1` (stereo not drawn) [Compound 66], the 50% inhibitory concentration (IC50) on USP7 [3] is above 10 µM.

At USP7 [3], `CNC(=O)c1ccc2c(Cl)c3c(nc2c1)CCCC3` [Compound 90] came in with an IC50 above 10 µM.

Consider `Nc1ccc2c(c1)NCN(CC1(O)CCN(C(=O)CCc3ccccc3)CC1)C2=O` [Compound 58], for which the IC50 against USP7 [3] is above 10 µM.

Compound `Cn1cc(C(=O)CCl)cc1C(=O)NCCCCC(=O)N1CCC(O)(Cn2cnc3cc(Cl)ccc3c2=O)CC1` [Compound 18] returned an IC50 against USP7 [3] of 1 to 10 µM.

For the compound `CC(C)C(CC(=O)N1CCC(O)(Cn2cnc3cc(NC(=O)CCN4CCN(C)CC4)ccc3c2=O)CC1)c1ccccc1` (stereo not drawn) [Compound 47], the half-maximal inhibitory concentration (IC50) against USP7 [3] is below 0.2 µM.

Turning to `O=C(CCc1ccccc1)N1CCC(O)(Cn2cnc3cc(Cl)ccc3c2=O)C1` (stereo not drawn) [Compound 5, 7-chloro-3-((3-hydroxy-1-(3-phenylpropanoyl)pyrrolidin-3-yl)methyl)quinazolin-4(3H)-one], at USP7 [3], the IC50 was above 10 µM.

In turn, `Nc1ccc2ncn(CC3(O)CCN(C(=O)CCc4ccccc4)CC3)c(=O)c2c1` [Compound 69] had a 50% inhibitory concentration (IC50) against USP7 [3] above 10 µM.

Compound `C[C@H](c1ccccc1)N(C)C(=O)N1CCC(O)(Cn2cnc3cc(Cl)ccc3c2=O)CC1` [Compound 41] displayed an IC50 on USP7 [3] above 10 µM.

`O=C(CCc1ccccc1)N1CCC(O)(Cn2cnc3ccc([N+](=O)[O-])cc3c2=O)CC1` [Compound 68]: at USP7 [3], the IC50 is above 10 µM.

Compound `O=C(CCc1ccncc1)N1CCC(O)(Cn2cnc3cc(Cl)ccc3c2=O)CC1` [Compound 52] registered an IC50 against USP7 [3] above 10 µM.

`O=C(CCC1CCCCC1)N1CCC(O)(Cn2cnc3cc(Cl)ccc3c2=O)CC1` [Compound 55] came in with an IC50 against USP7 [3] above 10 µM.

Take `C[C@@H](CC(=O)N1CCC(O)(Cn2cnc3cc(Cl)ccc3c2=O)CC1)c1ccccc1` [Compound 9, (S)-7-Chloro-3-((4-hydroxy-1-(3-phenylbutanoyl)piperidin-4-yl)methyl)quinazolin-4(3H)-one]: on USP7 [1], the “DH” value was -13.5 kcal/mol, the “DS (cal/mol•K)” value is recorded as −17.3 cal/mol•K and the “n (stoichiometry)” value was 0.96. At USP7 [1] (0.02 mM protein, 0.2 mM ligand), this compound displayed a Kd of 0.797 µM. For the same compound, at USP7 [3], the IC50 is below 0.2 µM.

As to `O=C([C@@H](O)Cc1ccccc1)N1CCC(O)(Cn2cnc3cc(Cl)ccc3c2=O)CC1` [Compound 32], the 50% inhibitory concentration (IC50) on USP7 [3] was above 10 µM.

Regarding `CC(C)(CC(=O)N1CCC(O)(Cn2cnc3cc(Cl)ccc3c2=O)CC1)c1ccccc1` [Compound 28], at USP7 [3], the half-maximal inhibitory concentration (IC50) is above 10 µM.

On USP7 [3], `C=CC(=O)N[C@@H](Cc1ccccc1)C(=O)N1CCC(O)(Cn2cnc3cc(Cl)ccc3c2=O)CC1` [Compound 59] displayed an IC50 above 10 µM.

On USP7 [3], `O=C(C1CC1c1ccccc1)N1CCC(O)(Cn2cnc3cc(Cl)ccc3c2=O)CC1` (stereo not drawn) [Compound 30] yielded an IC50 of 1 to 10 µM.

`CC(=O)Nc1cccc2c(=O)n(CC3(O)CCN(C(=O)C[C@@H](C)c4ccccc4)CC3)cnc12` [Compound 50] registered an IC50 against USP7 [3] of 1 to 10 µM.

`O=c1c2ccc(Cl)cc2ncn1CC1(O)CCN(c2cc([N+](=O)[O-])ccn2)CC1` [Compound 83] came in with a concentration for half-maximal inhibition (IC50) on USP7 [3] above 10 µM.

In turn, `O=C(CCc1ccccc1)N1CCC(Cn2cnc3cc(Cl)ccc3c2=O)CC1` [Compound 2, 7-Chloro-3-((1-(3-phenylpropanoyl)piperidin-4-yl)methyl)quinazolin-4(3H)-one] displayed a 50% inhibitory concentration (IC50) against USP7 [3] below 0.2 µM.

The compound `O=C(c1ccc2c(Cl)c3c(nc2c1)CCCC3)N1CCC(O)(Cn2cnc3cc(Cl)ccc3c2=O)CC1` [Compound 71] registered an IC50 against USP7 [3] above 10 µM.

`CC(C)(C)C(=O)N1CCC(O)(Cn2cnc3cc(Cl)ccc3c2=O)CC1` [Compound 76] showed a half-inhibitory concentration (IC50) against USP7 [3] above 10 µM.

For `O=C(Cc1ccccc1)N1CCC(O)(Cn2cnc3cc(Cl)ccc3c2=O)CC1` [Compound 7, 7-Chloro-3-((4-hydroxy-1-(2-phenylacetyl)piperidin-4-yl)methyl)quinazolin-4(3H)-one], the “Kd (μM)” value on USP7 [1] (0.02 mM protein, 0.2 mM ligand) is “No binding”. This compound returned an IC50 on USP7 [3] above 10 µM.

As to `O=c1c2ccc(Cl)cc2ncn1CC1(O)CCN(C(=S)NCc2ccccc2)CC1` [Compound 37], the IC50 against USP7 [3] was above 10 µM.

`O=C(CCc1ccccc1)N1CCC(O)(Cn2cnc3cc(Cl)ccc3c2=O)CC1` [Compound A, reference compound]: at USP7 [1], the “DH” value was -5.4 kcal/mol, the “DS (cal/mol•K)” value is listed as 5.3 cal/mol•K and the “n (stoichiometry)” value is 0.98. Further, on USP7 [1] (0.02 mM protein, 0.2 mM ligand), the dissociation constant (Kd) was determined as 7.61 µM.

In turn, `CC(CC(=O)N1CCC(O)(Cn2cnc3cc(NC(=O)CCn4ccnc4)ccc3c2=O)CC1)c1ccccc1` (stereo not drawn) [Compound 16] gave a concentration for half-maximal inhibition (IC50) against USP7 [3] below 0.2 µM.

Compound `O=C(CCc1ccc2c(Cl)c3c(nc2c1)CCCC3)NCCC(=O)N1CCC(O)(Cn2cnc3cc(Cl)ccc3c2=O)CC1` [Compound 97] registered a half-maximal inhibitory concentration (IC50) at USP7 [3] above 10 µM.

Regarding `O=C([C@H]1C[C@@H]1c1ccccc1)N1CCC(O)(Cn2cnc3cc(Cl)ccc3c2=O)CC1` [Compound 75], the IC50 at USP7 [3] is above 10 µM.

For `O=c1c2ccc(Cl)cc2ncn1CC1(O)CCN(c2ccccc2)CC1` [Compound 70], the 50% inhibitory concentration (IC50) against USP7 [3] is above 10 µM.

At USP7 [3], `O=C(NCCCCC(=O)N1CCC(O)(Cn2cnc3cc(Cl)ccc3c2=O)CC1)c1ccc2c(Cl)c3c(nc2c1)CCCC3` [Compound 98] came in with a 50% inhibitory concentration (IC50) of 0.2 to 1 µM.

The compound `CC(C)C(Cc1ccccc1)C(=O)N1CCC(O)(Cn2cnc3cc(Cl)ccc3c2=O)CC1` (stereo not drawn) [Compound 91] yielded a half-maximal inhibitory concentration (IC50) against USP7 [3] of 0.2 to 1 µM.

With `C[C@H](CC(=O)N1CCC(O)(Cn2cnc3cc(NC(=O)CCN4CCOCC4)ccc3c2=O)CC1)c1ccccc1` [Compound 14, (R)—N-(3-((4-hydroxy-1-(3-phenylbutanoyl)piperidin-4-yl)methyl)-4-oxo-3,4-dihydroquinazolin-7-yl)-3-morpholinopropanamide], at USP7 [3], the IC50 is below 0.2 µM.

As to `CC(Cc1ccccc1)C(=O)N1CCC(O)(Cn2cnc3cc(Cl)ccc3c2=O)CC1` (stereo not drawn) [Compound 29], on USP7 [3], the IC50 fell in the range of 0.2 to 1 µM.

`CC(=O)N1CCC(O)(Cn2cnc3cc(Cl)ccc3c2=O)CC1` [Compound 6, 3-((1-Acetyl-4-hydroxypiperidin-4-yl)methyl)-7-chloroquinazolin-4(3H)-one] showed an IC50 at USP7 [3] above 10 µM.

As for `O=C(C(Cc1ccccc1)c1ccccc1)N1CCC(O)(Cn2cnc3cc(Cl)ccc3c2=O)CC1` (stereo not drawn) [Compound 95], the IC50 on USP7 [3] is above 10 µM.

As to `O=C(CCc1cccc(Br)c1)N1CCC(O)(Cn2cnc3cc(Cl)ccc3c2=O)CC1` [Compound 24], the half-inhibitory concentration (IC50) against USP7 [3] was above 10 µM.
